Assay results reported in the NIST ThermoML archive (doi:10.1016/j.tca.2011.06.020).

Experiments:
[1] = xn = mol fraction of the nth substance listed; conditions: 101 kPa, Liquid; for speed of sound: Sing-around technique in a fixed-path interferometer; for mass density: Vibrating tube method
[2] = excess molar enthalpy (molar enthalpy of mixing); xn = mol fraction of the nth substance listed; conditions: 308.15 K, 101 kPa, Liquid, Drop calorimetry

Cc1ccccc1N [2-methylaniline] + C1CCOCC1
[1]
Conditions	mass density, 298.15 K [kg/m3]	mass density, 303.15 K [kg/m3]	mass density, 308.15 K [kg/m3]	speed of sound, 298.15 K [m/s]	speed of sound, 303.15 K [m/s]	speed of sound, 308.15 K [m/s]
x1 = 0.0732	890.691	885.73	880.749	1296.4	1274.1	1252.5
x1 = 0.1342	899.769	894.897	890.021	1318.6	1296.8	1275.8
x1 = 0.1768	905.846	900.991	896.174	1334	1312.5	1292
x1 = 0.2207	911.867	907.057	902.258	1349.8	1328.6	1308.5
x1 = 0.2721	918.66	913.86	909.112	1368.2	1347.1	1327.6
x1 = 0.3328	926.351	921.578	916.872	1389.3	1368.7	1349.5
x1 = 0.3562	929.219	924.445	919.758	1397.3	1376.9	1357.8
x1 = 0.3901	933.275	928.536	923.89	1409	1388.5	1369.8
x1 = 0.4288	937.818	933.094	928.469	1421.8	1401.6	1383.1
x1 = 0.4567	940.995	936.325	931.715	1431	1411.1	1392.3
x1 = 0.5014	945.986	941.37	936.823	1445.5	1425.7	1407.2
x1 = 0.5362	949.788	945.194	940.693	1456.6	1437	1418.2
x1 = 0.5982	956.336	951.867	947.455	1475.7	1456.5	1437.6
x1 = 0.6243	959.04	954.607	950.235	1483.6	1464.7	1445.7
x1 = 0.6644	963.103	958.737	954.427	1495.7	1477	1457.6
x1 = 0.7125	967.87	963.596	959.361	1510.2	1491.3	1471.8
x1 = 0.7703	973.454	969.292	965.131	1527.4	1508.7	1488.6
x1 = 0.8025	976.501	972.384	968.276	1537	1518.1	1497.9
x1 = 1	994.351	990.224	986.069	1602.6	1577.8	1558.4

CNC=O [N-methylformamide] + C1CCOCC1
[1]
Conditions	mass density, 298.15 K [kg/m3]	mass density, 303.15 K [kg/m3]	mass density, 308.15 K [kg/m3]	speed of sound, 298.15 K [m/s]	speed of sound, 303.15 K [m/s]	speed of sound, 308.15 K [m/s]
x2 = 0	999.004	994.653	990.302	1432.9	1417.7	1402.5
x2 = 0.0822	984.359	979.949	975.601	1411.8	1396.4	1380.7
x2 = 0.1587	971.886	967.407	963.009	1394	1377.9	1361.7
x2 = 0.2344	960.487	955.945	951.454	1377.9	1361	1344.4
x2 = 0.2633	956.359	951.788	947.263	1372.1	1355	1338.1
x2 = 0.3005	951.208	946.607	942.041	1365	1347.4	1330.3
x2 = 0.3572	943.711	939.057	934.409	1354.5	1336.5	1319.1
x2 = 0.3814	940.623	935.944	931.277	1350.3	1332	1314.5
x2 = 0.4163	936.288	931.584	926.867	1344.4	1325.8	1308
x2 = 0.4334	934.212	929.494	924.763	1341.6	1322.9	1305
x2 = 0.4851	928.124	923.354	918.566	1333.4	1314.3	1296.1
x2 = 0.5122	925.036	920.247	915.428	1329.3	1310	1291.6
x2 = 0.5693	918.752	913.91	909.049	1321	1301.3	1282.6
x2 = 0.6064	914.817	909.949	905.053	1315.9	1296	1277
x2 = 0.6571	909.625	904.722	899.79	1309.1	1289	1269.6
x2 = 0.6988	905.507	900.569	895.605	1303.8	1283.5	1263.7
x2 = 0.7315	902.361	897.401	892.421	1299.8	1279.3	1259.3
x2 = 0.7743	898.361	893.366	888.365	1294.7	1273.9	1253.5
x2 = 0.8468	891.856	886.811	881.763	1286.4	1265.1	1244.1

[2]
Conditions	excess molar enthalpy [kJ/mol]
x2 = 0.0662	0.0341
x2 = 0.1805	0.122
x2 = 0.2254	0.156
x2 = 0.2892	0.206
x2 = 0.3252	0.236
x2 = 0.3743	0.268
x2 = 0.4016	0.279
x2 = 0.4724	0.314
x2 = 0.5114	0.323
x2 = 0.5562	0.327
x2 = 0.5923	0.325
x2 = 0.6242	0.313
x2 = 0.6675	0.304
x2 = 0.7153	0.276
x2 = 0.7576	0.252
x2 = 0.7901	0.223
x2 = 0.8152	0.202
x2 = 0.8676	0.154
